Test results as given in article PMC11901438, “Synthesis and Evaluation of Boron-Containing Heterocyclic Compounds with Antimicrobial and Anticancer Activities” (Molecules, 2025).
pIC50: −log10 of the molar value. ≈ marks a conversion by molar mass, not a printed value.

Assays:
SCC-25 cells = assay: MTT anticancer assay in SCC-25 cells; assay type: cell-based; settings: for pIC50: MTT, 24 h; for SI (selectivity index): NOK-si versus SCC-25
Experimental: (§1) Boronic acid and benzoboroxole derivatives have been identified as potential anticancer agents. To investigate their efficacy against head and neck cancer cell lines, SCC-25 cells were utilized in this study, as a model for oral squamous cell carcinoma. Additionally, cytotoxicity was performed in normal oral keratinocytes NOK-si cells to evaluate the selective index of the compounds. […] The selectivity of the compounds is quantified by the selectivity index (SI), with those with an SI greater than 3.0 being considered promising for further evaluation, in accordance with internal protocols.
(§2) The SCC-25 was purchased from Rio de Janeiro Cell Bank, and NOK-si was kindly provided by Prof. Carlos Rossa from the School of Dentistry—UNESP. The cell lines were initially thawed and cultured in 25 cm^2 cell culture flasks. Cell growth was monitored using a microscope, and the culture medium was changed periodically. Upon reaching confluency, cell dissociation was achieved by adding 5 mL of trypsin (Sigma-Aldrich, St Louis, MO, USA) and incubating the bottles in a CO2 incubator for 10 min. Subsequently, the cells were transferred to 15 mL Falcon tubes and centrifuged at 2000 rpm for 10 min. Cell counting was performed using a Countess II FL automated cell counter (ThermoFischer, Waltham, MA, USA). The cells were seeded at a density of 30,000 cells per well in 96-well plates. The plates were then incubated at 37 °C in 5% CO2 for 24 h. Following this, test compounds were incubated for another 24 h at 10 different concentrations: 50, 25, 12.5, 6.25, 3.12, 1.56, 0.78, 0.39, 0.19, and 0.097 µg/mL. After the specified time, MTT reagent (3 mg/mL) (Sigma-Aldrich, St Louis, MO, USA) dissolved in phenol-free RPMI 1640 was added and incubated for 4 h. The formed MTT crystals were solubilized using 2-propanol P.A (Sigma-Aldrich, St Louis, MO, USA) with agitation. Absorbance was read at 562 nm using an EZ Read 400 microplate reader (Biochrom, Cambridge, UK) and ADAP 2.0 Biochrom software (version 2.0). IC50 values and graphs were calculated by Dr. Paula Aboud Barbugli using Excel and Prism software (version 10.4.1). The MTT assay results were evaluated for normality using the Shapiro–Wilk test, followed by one-way ANOVA with Tukey’s post hoc test at a significance level of 5%.

NOK-si cells = assay: MTT cytotoxicity assay in normal oral keratinocytes NOK-si; assay type: cell-based; settings: Keratinocyte, 24 h, read-out: NOK-si IC50
Experimental: as §1, §2

T. rubrum ATCC 28189 = assay: Antifungal susceptibility test (CLSI M38-A2 microdilution, resazurin), MIC90; settings: Trichophyton rubrum, ATCC28189, read-out: T. rubrum ATCC 28189 MIC90
[1] = system: M. tuberculosis H37RV ATCC 27294 strain; assay: Resazurin microtiter assay (REMA), MIC90; assay type: cell-based; settings: Mycobacterium tuberculosis, cut-off 25 µM
[2] = system: T. mentagrophytes (ATCC 11481); assay: Antifungal susceptibility test (CLSI M38-A2 microdilution, resazurin), MIC90; settings: Trichophyton mentagrophytes, ATCC11481|ATCC28189, read-out: T. mentagrophytes ATCC 28189 MIC90
HaCaT cell line = assay: Resazurin cytotoxicity assay using HaCaT cells; assay type: cell-based, human; settings: compared to the benzoboroxole derivatives 44 and 45
Experimental: For the cytotoxicity assay, the HaCaT cell line, which is characterized as immortalized normal human keratinocytes, was used.
For the cytotoxicity assay, the HaCat cell line, characterized as immortalized normal human keratinocytes, was used. The cells were maintained in (DMEM) supplemented with 10% of bovine fetal serum (BFS) (Sigma-Aldrich, St Louis, MO, USA) in cell culture bottles with 5% CO2 at 37 °C. After a confluence of 75%, the cells were treated with trypsin + EDTA 0.25%, centrifugated at 1500 rpm for 10 min, and 5 × 10^4 cells/well were seeded in 96-well plates for incubation for 24 h for cell adhesion before treatment. After adhesion, the cells were treated with 100 µL of the compounds 34 and 40, with fungi activity in concentrations between 3.90 and 125 µg/mL. Regarding the controls, DMSO in the concentration range of (1–4%) was used as a positive control for cytotoxicity; the beyond negative control comprised HaCaT cells only in DMEM medium (Sigma-Aldrich, St Louis, MO, USA). After 24 h of treatment, 30 µL of resazurin 50 µM was added to each well for 4 h, and the plates were read at 560 and 600 nm using microplate reader BioTek (Agilent, Santa Clara, CA, USA), Gen 5 software (version 2.09). The […] (IC50) for each compound was determined based on resazurin reduction. Three independent assays were performed.

[3] = system: M. tuberculosis H37Rv strains; settings: cited from earlier work
[4] = molecular target: leucyl-tRNA synthetase (LeuRS); design: method as in PMID 28953378, PMID 38365949; settings: cited from earlier work

O=c1[nH]cc(F)c(=O)[nH]1 [5-fluorouracil, reference compound]
pIC50 (SCC-25 cells; Homo sapiens, SCC-25, 24 h): 2.74

O=C(Nc1ccc(N2CCN(c3ccccn3)CC2)c(F)c1)c1cccc(B(O)O)c1 [Compound 29, {3-({3-Fluoro-4-[4-(pyridin-2-yl)piperazin-1-yl]phenyl}carbamoyl)phenyl}boronic acid]
CC50 (NOK-si cells): 110 µM | MIC90 (T. rubrum ATCC 28189): 297 µM (≈ 125 µg/mL) | pIC50 (SCC-25 cells; Homo sapiens, SCC-25, 24 h): 4.10 | pIC50 (SCC-25 cells): 3.93 | SI (selectivity index) (SCC-25 cells): <1 | MIC90 [1]: > 25 µM | MIC90 [2]: 297 µM (≈ 125 µg/mL)

O=C(Nc1ccc(N2CCN(c3ncccn3)CC2)c(F)c1)c1cccc(B(O)O)c1 [Compound 30, [3-({3-Fluoro-4-[4-(pyrimidin-2-yl)piperazin-1-yl]phenyl}carbamoyl)phenyl]boronic acid]
MIC90 (T. rubrum ATCC 28189): 297 µM (≈ 125 µg/mL) | SI (selectivity index) (SCC-25 cells): <1 | MIC90 [1]: > 25 µM | MIC90 [2]: 297 µM (≈ 125 µg/mL)

O=C(Nc1ccc(N2CCN(c3ccc(F)cc3)CC2)c(F)c1)c1cccc(B(O)O)c1 [Compound 31, [3-({3-Fluoro-4-[4-(4-fluorophenyl)piperazin-1-yl]phenyl}carbamoyl)phenyl]boronic acid]
CC50 (NOK-si cells): > 221 µM | MIC90 (T. rubrum ATCC 28189): 286 µM (≈ 125 µg/mL) | pIC50 (SCC-25 cells; Homo sapiens, SCC-25, 24 h): 4.23 | SI (selectivity index) (SCC-25 cells): 3.73 | MIC90 [1]: > 25 µM | MIC90 [2]: 286 µM (≈ 125 µg/mL)

O=C(Nc1ccc(N2CCSCC2)c(F)c1)c1cccc(B(O)O)c1 [Compound 32, {3-[(3-Fluoro-4-thiomorpholinophenyl)carbamoyl]phenyl}boronic acid]
MIC90 (T. rubrum ATCC 28189): 347 µM (≈ 125 µg/mL) | SI (selectivity index) (SCC-25 cells): <1 | MIC90 [1]: > 25 µM | MIC90 [2]: 347 µM (≈ 125 µg/mL)

O=C(Nc1ccc(N2CCOCC2)c(F)c1)c1cccc(B(O)O)c1 [Compound 33, {3-[(3-Fluoro-4-morpholinophenyl)carbamoyl]phenyl}boronic acid]
MIC90 (T. rubrum ATCC 28189): 363 µM (≈ 125 µg/mL) | SI (selectivity index) (SCC-25 cells): <1 | MIC90 [1]: > 25 µM | MIC90 [2]: 363 µM (≈ 125 µg/mL)

O=C(Nc1ccc(N2CCCCCC2)c(F)c1)c1cccc(B(O)O)c1 [Compound 34, (3-{[4-(Azepan-1-yl)-3-fluorophenyl]carbamoyl}phenyl)boronic acid]
CC50 (NOK-si cells): 129 µM | MIC90 (T. rubrum ATCC 28189): 42 µM (≈ 15 µg/mL) | cytotoxic effects in HaCaT cells (comparison in words) (HaCaT cell line): higher cytotoxic effects | pIC50 (SCC-25 cells; Homo sapiens, SCC-25, 24 h): 4.17 | SI (selectivity index) (SCC-25 cells): 1.91 | MIC90 [1]: > 25 µM | MIC90 [2]: 21 µM (≈ 7.48 µg/mL)

O=C(Nc1ccc(N2CCN(c3ccccn3)CC2)c(F)c1)c1ccc(B(O)O)cc1 [Compound 35, [4-({3-Fluoro-4-[4-(pyridin-2-yl)piperazin-1-yl]phenyl}carbamoyl)phenyl]boronic acid]
CC50 (NOK-si cells): 221 µM | MIC90 (T. rubrum ATCC 28189): 297 µM (≈ 125 µg/mL) | pIC50 (SCC-25 cells; Homo sapiens, SCC-25, 24 h): 4.35 | pIC50 (SCC-25 cells): 4.34 | SI (selectivity index) (SCC-25 cells): 3.37 | MIC90 [1]: > 25 µM | MIC90 [2]: 297 µM (≈ 125 µg/mL)

O=C(Nc1ccc(N2CCN(c3ncccn3)CC2)c(F)c1)c1ccc(B(O)O)cc1 [Compound 36, [4-({3-Fluoro-4-[4-(pyrimidin-2-yl)piperazin-1-yl]phenyl}carbamoyl)phenyl]boronic acid]
CC50 (NOK-si cells): 134 µM | MIC90 (T. rubrum ATCC 28189): 297 µM (≈ 125 µg/mL) | pIC50 (SCC-25 cells; Homo sapiens, SCC-25, 24 h): 3.87 | SI (selectivity index) (SCC-25 cells): 1.00 | MIC90 [1]: > 25 µM | MIC90 [2]: 297 µM (≈ 125 µg/mL)

O=C(Nc1ccc(N2CCN(c3ccc(F)cc3)CC2)c(F)c1)c1ccc(B(O)O)cc1 [Compound 37, [4-({3-Fluoro-4-[4-(4-fluorophenyl)piperazin-1-yl]phenyl}carbamoyl)phenyl]boronic acid]
CC50 (NOK-si cells): 123 µM | MIC90 (T. rubrum ATCC 28189): 286 µM (≈ 125 µg/mL) | pIC50 (SCC-25 cells; Homo sapiens, SCC-25, 24 h): 4.10 | SI (selectivity index) (SCC-25 cells): 1.55 | MIC90 [1]: > 25 µM | MIC90 [2]: 286 µM (≈ 125 µg/mL)

O=C(Nc1ccc(N2CCSCC2)c(F)c1)c1ccc(B(O)O)cc1 [Compound 38, {4-[(3-Fluoro-4-thiomorpholinophenyl)carbamoyl]phenyl}boronic acid]
CC50 (NOK-si cells): 149 µM | MIC90 (T. rubrum ATCC 28189): 347 µM (≈ 125 µg/mL) | SI (selectivity index) (SCC-25 cells): <1 | MIC90 [1]: > 25 µM | MIC90 [2]: 347 µM (≈ 125 µg/mL)

O=C(Nc1ccc(N2CCOCC2)c(F)c1)c1ccc(B(O)O)cc1 [Compound 39, {4-[(3-Fluoro-4-morpholinophenyl)carbamoyl]phenyl}boronic acid]
CC50 (NOK-si cells): 77.1 µM | MIC90 (T. rubrum ATCC 28189): 363 µM (≈ 125 µg/mL) | pIC50 (SCC-25 cells; Homo sapiens, SCC-25, 24 h): 4.13 | SI (selectivity index) (SCC-25 cells): 1.04 | MIC90 [1]: > 25 µM | MIC90 [2]: 363 µM (≈ 125 µg/mL)

O=C(Nc1ccc(N2CCCCCC2)c(F)c1)c1ccc(B(O)O)cc1 [Compound 40, (4-{[4-(Azepan-1-yl)-3-fluorophenyl]carbamoyl}phenyl)boronic acid]
CC50 (NOK-si cells): 127 µM | MIC90 (T. rubrum ATCC 28189): 88 µM (≈ 31.3 µg/mL) | cytotoxic effects in HaCaT cells (comparison in words) (HaCaT cell line): higher cytotoxic effects | pIC50 (SCC-25 cells; Homo sapiens, SCC-25, 24 h): 4.07 | SI (selectivity index) (SCC-25 cells): 1.49 | MIC90 [1]: > 25 µM | MIC90 [2]: 42 µM (≈ 15 µg/mL)

O=C(Nc1ccc(N2CCN(c3ccccn3)CC2)c(F)c1)c1ccc2c(c1)COB2O [Compound 44, N-{3-fluoro-4-[4-(pyridin-2-yl)piperazin-1-yl]phenyl}-1-hydroxy-1,3-dihydrobenzo[c][1,2]oxaborole-5-carboxamide]
MIC90 (T. rubrum ATCC 28189): 289 µM (≈ 125 µg/mL) | killing effect in SCC-25 cells (SCC-25 cells): absent killing effect | SI (selectivity index) (SCC-25 cells): <1 | MIC90 [1]: > 25 µM | MIC90 [2]: 146 µM (≈ 63.1 µg/mL)

O=C(Nc1ccc(N2CCSCC2)c(F)c1)c1ccc2c(c1)COB2O [Compound 45, N-(3-fluoro-4-thiomorpholinophenyl)-1-hydroxy-1,3-dihydrobenzo[c][1,2]oxaborole-5-carboxamide]
CC50 (NOK-si cells): 65.8 µM | MIC90 (T. rubrum ATCC 28189): 336 µM (≈ 125 µg/mL) | pIC50 (SCC-25 cells; Homo sapiens, SCC-25, 24 h): 4.08 | SI (selectivity index) (SCC-25 cells): <1 | MIC90 [1]: > 25 µM | MIC90 [2]: 336 µM (≈ 125 µg/mL)

NNC(=O)c1ccncc1 [Isoniazide, reference compound]
MIC90 [1]: 0.11 µM (≈ 0.0151 µg/mL)

CN(C/C=C/C#CC(C)(C)C)Cc1cccc2ccccc12 [Terbinafine, reference compound]
MIC90 (T. rubrum ATCC 28189): 0.0001 µM (≈ 2.91e-05 µg/mL) | MIC90 [2]: 2.5e-05 µM (≈ 7.29e-06 µg/mL)

NC[C@H]1OB(O)c2c(OCCO)ccc(Cl)c21 [ganfeborole, (S)-3-(aminomethyl)-4-chloro-7-(2-hydroxyethoxy)benzo[c][1,2]oxaborol-1(3H)-ol]
MIC90 [3]: 0.08 µM (≈ 0.0206 µg/mL) | MIC against M. tuberculosis H37Rv strains [3]: 0.08 µM (≈ 0.0206 µg/mL) | pIC50 [4]: 6.70
